From patent US11053204B2, “Pyrimidinyloxy benzene derivatives as herbicides” (FMC Corporation, priority 2015, dated 2021)

Experiments:
Format in all cases: in vivo
kochia (Kochia scoparia) = test: Test C preemergence, plant response rating
[1] = test system: surinam grass (Brachiaria decumbens); test: Test C preemergence, plant response rating
[2] = test system: oat, wild (wild oat Avena fatua); test: Test C preemergence, plant response rating
[3] = test system: galium (catchweed bedstraw, Galium aparine); test: Test C preemergence, plant response rating
[4] = test system: lambsquarters (Chenopodium album); test: Test C postemergence, plant response rating; conditions: for Lambsquarters plant response rating: scale 0 to 100 (0 no effect, 100 complete control)
How it was run: (§1)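 Both timings shared one formulation, a non-phytotoxic solvent mixture with surfactant, and a greenhouse period of 13 to 15 d. Preemergence used seeded loam/sand or silt loam soil, postemergence used 2 to 18 cm plants; visual ratings ran from 0 (no effect) to 100 (complete control).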

[5] = test system: blackgrass (Alopecurus myosuroides); test: Test C postemergence, plant response rating; conditions: for Plant response rating, Blackgrass: scale 0 to 100; for Blackgrass plant response rating: scale 0 to 100 (0 no effect, 100 complete control)
How it was run: as §1

[6] = test system: wheat (winter wheat, Triticum aestivum); test: Test C postemergence, plant response rating
How it was run: as §1

[7] = test system: oat, wild (wild oat Avena fatua); test: Test C postemergence, plant response rating; conditions: for Oat, Wild plant response rating: scale 0 to 100 (0 no effect, 100 complete control)
How it was run: as §1

[8] = test system: barnyardgrass (Echinochloa crus-galli); test: Test C postemergence, plant response rating; conditions: for Plant response rating, Barnyardgrass: scale 0 to 100; for Barnyardgrass plant response rating: scale 0 to 100 (0 no effect, 100 complete control)
How it was run: as §1

[9] = test system: velvetleaf (Abutilon theophrasti); test: Test C postemergence, plant response rating
How it was run: as §1

[10] = test system: ragweed (common ragweed, Ambrosia elatior); test: Test C postemergence, plant response rating; conditions: for Ragweed plant response rating: scale 0 to 100 (0 no effect, 100 complete control)
How it was run: as §1

[11] = test system: crabgrass, large (large crabgrass, Digitaria sanguinalis); test: Test C postemergence, plant response rating; conditions: for Crabgrass, Large plant response rating: scale 0 to 100 (0 no effect, 100 complete control)
How it was run: as §1

soybean (Glycine max) = test: Test C postemergence, plant response rating; conditions: for Soybean plant response rating: scale 0 to 100 (0 no effect, 100 complete control)
How it was run: as §1

[12] = test system: oilseed rape (Brassica napus); test: Test C postemergence, plant response rating; conditions: for Oilseed Rape plant response rating: scale 0 to 100 (0 no effect, 100 complete control)
How it was run: as §1

corn (Zea mays) = test: Test C postemergence, plant response rating; conditions: for Corn plant response rating: scale 0 to 100 (0 no effect, 100 complete control)
How it was run: as §1

[13] = test system: ryegrass, Italian (Italian ryegrass, Lolium multiflorum); test: Test C postemergence, plant response rating; conditions: for Ryegrass, Italian plant response rating: scale 0 to 100 (0 no effect, 100 complete control)
How it was run: as §1

[14] = test system: nutsedge, yellow (yellow nutsedge, Cyperus esculentus); test: Test C postemergence, plant response rating; conditions: for Nutsedge, Yellow plant response rating: scale 0 to 100 (0 no effect, 100 complete control)
How it was run: as §1

[15] = test system: waterhemp (common waterhemp, Amaranthus rudis); test: Test C postemergence, plant response rating
How it was run: as §1

[16] = test system: foxtail, giant (giant foxtail, Setaria faberii); test: Test C postemergence, plant response rating; conditions: for Foxtail, Giant plant response rating: scale 0 to 100 (0 no effect, 100 complete control)
How it was run: as §1

[17] = test system: galium (catchweed bedstraw, Galium aparine); test: Test C postemergence, plant response rating; conditions: for Galium plant response rating: scale 0 to 100 (0 no effect, 100 complete control)
How it was run: as §1

[18] = 125 g ai/ha, scale 0 to 100 (0 no effect, 100 complete control)

CCCCC(=O)c1c(Oc2ncc(Cl)cn2)cccc1C(F)(F)F [Compound 130]
Plant response rating, Kochia (kochia (Kochia scoparia); 31 g ai/ha, scale 0 to 100): 65
Plant response rating, Kochia (kochia (Kochia scoparia); 62 g ai/ha, scale 0 to 100): 65
Plant response rating, Kochia (kochia (Kochia scoparia); 125 g ai/ha, scale of 0 to 100): 98
Plant response rating, Surinam Grass ([1]; 31 g ai/ha, scale 0 to 100): 50
Plant response rating, Surinam Grass ([1]; 62 g ai/ha, scale 0 to 100): 65
Plant response rating, Surinam Grass ([1]; 125 g ai/ha, scale of 0 to 100): 80
Plant response rating, Oat, Wild ([2]; 31 g ai/ha, scale 0 to 100): 15
Plant response rating, Oat, Wild ([2]; 62 g ai/ha, scale 0 to 100): 35
Plant response rating, Oat, Wild ([2]; 125 g ai/ha, scale of 0 to 100): 60
Plant response rating, Galium ([3]; 31 g ai/ha, scale 0 to 100): 50
Plant response rating, Galium ([3]; 62 g ai/ha, scale 0 to 100): 90
Plant response rating, Galium ([3]; 125 g ai/ha, scale of 0 to 100): 90
Plant response rating, Lambsquarters ([4]; 16 g ai/ha, scale of 0 to 100): 75
Plant response rating, Lambsquarters ([4]; 31 g ai/ha, scale 0 to 100): 90
Lambsquarters plant response rating ([4]; 62 g ai/ha): 85
Lambsquarters plant response rating ([4]; 125 g ai/ha): 95
Plant response rating, Blackgrass ([5]; 16 g ai/ha): 5
Plant response rating, Blackgrass ([5]; 31 g ai/ha): 5
Blackgrass plant response rating ([5]; 62 g ai/ha): 20
Blackgrass plant response rating ([5]; 125 g ai/ha): 30
Plant response rating, Wheat ([6]; 16 g ai/ha, scale of 0 to 100): 10
Plant response rating, Wheat ([6]; 31 g ai/ha, scale 0 to 100): 5
Wheat plant response rating [6, 18]: 30
Plant response rating, Oat, Wild ([7]; 16 g ai/ha, scale of 0 to 100): 5
Plant response rating, Oat, Wild ([7]; 31 g ai/ha, scale 0 to 100): 10
Oat, Wild plant response rating ([7]; 62 g ai/ha): 15
Oat, Wild plant response rating ([7]; 125 g ai/ha): 15
Plant response rating, Barnyardgrass ([8]; 16 g ai/ha): 5
Plant response rating, Barnyardgrass ([8]; 31 g ai/ha): 5
Barnyardgrass plant response rating ([8]; 62 g ai/ha): 10
Barnyardgrass plant response rating ([8]; 125 g ai/ha): 20
Plant response rating, Velvetleaf ([9]; 16 g ai/ha, scale of 0 to 100): 25
Plant response rating, Velvetleaf ([9]; 31 g ai/ha, scale 0 to 100): 45
Velvetleaf plant response rating [9, 18]: 75
Plant response rating, Ragweed ([10]; 16 g ai/ha, scale of 0 to 100): 25
Plant response rating, Ragweed ([10]; 31 g ai/ha, scale 0 to 100): 45
Ragweed plant response rating ([10]; 62 g ai/ha): 55
Ragweed plant response rating ([10]; 125 g ai/ha): 50
Plant response rating, Crabgrass, Large ([11]; 16 g ai/ha, scale of 0 to 100): 5
Plant response rating, Crabgrass, Large ([11]; 31 g ai/ha, scale 0 to 100): 10
Crabgrass, Large plant response rating ([11]; 62 g ai/ha): 10
Crabgrass, Large plant response rating ([11]; 125 g ai/ha): 20
Plant response rating, Soybean (soybean (Glycine max); 16 g ai/ha, scale of 0 to 100): 40
Plant response rating, Soybean (soybean (Glycine max); 31 g ai/ha, scale 0 to 100): 55
Soybean plant response rating (soybean (Glycine max); 62 g ai/ha): 75
Soybean plant response rating (soybean (Glycine max); 125 g ai/ha): 95
Plant response rating, Oilseed Rape ([12]; 16 g ai/ha, scale of 0 to 100): 70
Plant response rating, Oilseed Rape ([12]; 31 g ai/ha, scale 0 to 100): 85
Oilseed Rape plant response rating ([12]; 62 g ai/ha): 95
Oilseed Rape plant response rating ([12]; 125 g ai/ha): 98
Plant response rating, Corn (corn (Zea mays); 16 g ai/ha, scale of 0 to 100): 10
Plant response rating, Corn (corn (Zea mays); 31 g ai/ha, scale 0 to 100): 20
Corn plant response rating (corn (Zea mays); 62 g ai/ha): 15
Corn plant response rating (corn (Zea mays); 125 g ai/ha): 20
Plant response rating, Ryegrass, Italian ([13]; 16 g ai/ha, scale of 0 to 100): 5
Plant response rating, Ryegrass, Italian ([13]; 31 g ai/ha, scale 0 to 100): 10
Ryegrass, Italian plant response rating ([13]; 62 g ai/ha): 10
Ryegrass, Italian plant response rating ([13]; 125 g ai/ha): 15
Plant response rating, Nutsedge, Yellow ([14]; 16 g ai/ha, scale of 0 to 100): 0
Plant response rating, Nutsedge, Yellow ([14]; 31 g ai/ha, scale 0 to 100): 0
Nutsedge, Yellow plant response rating ([14]; 62 g ai/ha): 5
Nutsedge, Yellow plant response rating ([14]; 125 g ai/ha): 5
Plant response rating, Waterhemp ([15]; 16 g ai/ha, scale of 0 to 100): 65
Plant response rating, Waterhemp ([15]; 31 g ai/ha, scale 0 to 100): 75
Waterhemp plant response rating [15, 18]: 85
Plant response rating, Foxtail, Giant ([16]; 16 g ai/ha, scale of 0 to 100): 10
Plant response rating, Foxtail, Giant ([16]; 31 g ai/ha, scale 0 to 100): 10
Foxtail, Giant plant response rating ([16]; 62 g ai/ha): 10
Foxtail, Giant plant response rating ([16]; 125 g ai/ha): 30
Plant response rating, Galium ([17]; 16 g ai/ha, scale of 0 to 100): 75
Plant response rating, Galium ([17]; 31 g ai/ha, scale 0 to 100): 80
Galium plant response rating ([17]; 62 g ai/ha): 85
Galium plant response rating ([17]; 125 g ai/ha): 80
